Where two headings read alike, the source gives them in different places. Marks after values point to notes of the source that are not given here.
System: PC-3M prostate cancer cell line
Conditions: for inhibition fraction at the given concentration: PC-3M proliferation
Text: Cytotoxicity of Quinolyl Germanyl Propionate Sesquioxide (a) and Quinolyl Germanyl-α-methyl Propionate Sesquioxide (b) Against PC-3M Prostate Cancer Cell Line
The only difference of these two compounds is with or without the methyl group in the linking chain of the Germanium and quinoline.

Row | Substance | inhibition fraction at the given concentration (10 μM, 24 h) | inhibition fraction at the given concentration (10 μM, 48 h) | inhibition fraction at the given concentration (10 μM, 72 h) | inhibition fraction at the given concentration (30 μM, 24 h) | inhibition fraction at the given concentration (30 μM, 48 h) | inhibition fraction at the given concentration (30 μM, 72 h) | inhibition fraction at the given concentration (60 μM, 24 h) | inhibition fraction at the given concentration (60 μM, 48 h) | inhibition fraction at the given concentration (60 μM, 72 h) | IC50 relative to that of Compound (b) (PC-3M, MTT method) | IC50 (PC-3M, measured by MTT method)
1 | Quinolyl Germanyl Propionate Sesquioxide [Compound (a)] | 0.34** | 0.69 | 0.62 | 0.48 | 0.74 | 0.74 | 0.50 | 0.74 | 0.78 | three fold lower | 10 µM
2 | Quinolyl Germanyl-α-methyl Propionate Sesquioxide [Compound (b)] | 0.09 | 0.32 | 0.58 | 0.30 | 0.45 | 0.69 | 0.20 | 0.43 | 0.67 | – | –

— patent publication US7339063B2, “Quinolyl organic germanium ester and the synthesis method thereof” (Changchun Institute of Applied Chemistry Chinese Academy of …, priority 2004, dated 2008)
